Test results published in paper PMC10442743 (Dalton Transactions (Cambridge, England : 2003), 2023).
Read-outs that look alike come from different tables or passages of the source.

How the values were obtained:
[1] = Solubility in water (ICP-MS); conditions: 25 °C, limit of detection = 5 ppt
Description: sonication, the mixtures were stirred at 25 °C for 1 h. The saturated solutions were filtered
to remove any insoluble solids, dissolved in 0.5 mL of MilliQ water, and analyzed using
ICP-MS. Samples were submitted to acidic digestion with 2 mL of concentrated HNO3
min to heat to 100°C and keep at 100°C for 60 min. After the digestion, the sample
volumes were precisely adjusted to 5 mL with MilliQ water. Samples were further diluted
30 times with 2% HNO3 solution and their Ru content was analyzed by ICP-MS using
standard mode on NexIon 350 D ICP-MS instrument (PerkinElmer). Yttrium was added
as an internal standard at a concentration of 2 ppb to all the solution and Ru quantitation
was performed using an external calibration curve with standards in the 0.05-50 ppb

[2] = tested on: MCF-7; experiment: MTT cytotoxicity assay, MCF-7 cells; assay type: cell-based, human; conditions: MTT
Description: (§1) The cytotoxicity of 1–11CA was assessed against human breast cancer MCF-7 and MDA-MB-231 cells, and non-tumorigenic adherent mouse fibroblast connective tissue L929 cells using the MTT assay after 24 and 72 h (Tables S5 ^† and Table 1, respectively).
(§2) Then, necessary dilutions were made using the supplement DMEM, to prepare the range of tested concentrations. Since DMSO was used to solubilize the compounds, a supplemented DMEM + DMSO (at the same percentage as in the sequential dilutions) was considered as a control in the 3-[4,5-dimetylthiazole-2-yl]-2,5-diphenyltetrazolium bromide (MTT) assay.
(§3) L929, MCF-7, and MDA-MB-231 cell lines were cultured in DMEM supplemented with 10% (v/v) FBS and 1% (v/v) of penicillin–streptomycin. The cells were incubated in a humidified chamber at 37 °C under saturated air with a 5% CO2 atmosphere. Cells were passed at 80%–90% of confluency with 0.25% (w/v) trypsin and the cell culture media was changed every 2–3 days.
(§4) The compounds were tested on two breast cancer cell lines (MCF-7 and MDA-MB-231) and L929 fibroblasts, used as a reference for the safety evaluation according to ISO 10993-1:2009 “Biological evaluation of medical devices”. Cells were seeded on sterile 96-well plates at 50 000 cells per well (L929) and 20 000 cells per well (MCF-7 and MDA-MB-231) in supplemented DMEM medium (100 μL) for 24 h. The culture medium was removed and new media containing different concentrations of the compounds (0–1000 μM) was added to the wells (100 μL). Control cells were incubated under the same conditions in the absence of a compound. Cells were incubated for 24 and 72 h under the same conditions described above. Then, the medium was removed, and the cells were incubated with 3-(4,5-dimethylthiazol-2-yl)-2,5-diphenyltetrazolium bromide (MTT; 0.5 mg mL^−1) for 3 h. After this time, the medium was removed, and formazan crystals were solubilized with DMSO (100 μL per well). The absorbance in each well was read on a SynergyTM HT Multimode microplate reader (BioTek Instruments; Winooski, VT, USA) at 570 and 630 nm (for background correction), and the cell viability was calculated according to the following equation (eqn (1)):1 [drawing 3] where OD570(sample) and OD630(sample) are the optical densities of the solutions containing the compounds and OD570(control) and OD630(control) are controls without compound.
(§5) Each apoptosis value determination represents the mean ± standard deviation of 2 independent assays. The IC50 values were obtained using GraphPad Prism software and ANOVA (analysis of variance) was performed to determine the statistical difference between the IC50 values of different cell lines.

[3] = tested on: MDA-MB-231; experiment: MTT cytotoxicity assay, MDA-MB-231 cells; assay type: cell-based, human; conditions: MTT
Description: as §1, §2, §3, §4, §5

[4] = tested on: L929; experiment: MTT cytotoxicity assay, L929 fibroblasts (and selectivity index); assay type: cell-based, mouse; conditions: for SI (selectivity index): IC50 L929 divided by average IC50 of the breast cancer cell lines; for IC50: MTT
Description: as §1, §2, §3, §4, §5

[5] = tested on: MDA-MB-231; experiment: FITC Annexin V / 7-AAD apoptosis assay, MDA-MB-231; assay type: cell-based, human; conditions: 24 h at 24 h IC50 dose
Description: Apoptosis in MCF-7 and MDA-MB-231 cells was determined using FITC Annexin V with a 7-aminoactinomycin D (7-AAD) staining kit (BioLegend®, California, US) according to the manufacturer's instructions. […] Following incubation, the cells were washed with PBS twice and detached using 0.25% trypsin. After obtaining cell pellets by centrifugation (300g for 5 min), the cells were resuspended in 100 μL of PBS, followed by the addition of 10 μL of FITC Annexin V and 7-AAD, and then incubated for 15 min at room temperature while protected from light. After the incubation period, 200 μL of binding buffer was added to the cell suspension and the samples were analyzed immediately using a BD Accuri C6 flow cytometer with a minimum of 10 000 events. The assays were performed in quadruplicate and the results were analyzed with Accuri C6 analysis software.
Each cell viability result represents the mean ± standard deviation (SD) for n = 4 replicates in each of 3 independent assays, resulting in 12 independent values. Each apoptosis value determination represents the mean ± standard deviation of 2 independent assays. The IC50 values were obtained using GraphPad Prism software and ANOVA (analysis of variance) was performed to determine the statistical difference between the IC50 values of different cell lines.

[6] = n-octanol/water partition coefficient (shake-flask, ICP-MS)
Description: The saturated solutions were filtered
(DigiPREP Jr. 15ml, 40 Pos, SCP Science). The digestion program was the following: 15
After the digestion, the sample
Samples were further diluted
range. All measurements were performed in triplicates.
lipophilicity of a compound. This assay was performed following the Shake-flask method
organic and aqueous phase. Aliquots of each phase were taken and analyzed separately
range. The partition coefficient was calculated as P!"=
respectively. All measurements were performed in triplicates.

[7] = Molar conductivity in acetonitrile; assay type: physicochemical; conditions: 1 mM in acetonitrile, 25 °C
Description: The molar conductivity (ΛM, reported as S·cm2·mol–1) of solutions of 11CA in acetonitrile (1 mM) were measured in a Radiometer Copenhagen CDM92 equipped with a conductivity cell CDC641T glass platinum electrode at room temperature (25 °C). The conductivity of the pure solvent was used as standard controls.
Table S3. Solubility in water at 25 °C, n-octanol/water partition coefficient and molar conductivity of the 11CA. * below limit of detection = 5 ppt.

[8] = tested on: MDA-MB-231; conditions: literature value ref 42; read-out: cytotoxicity (IC50) MDA-MB-231; cited from earlier work
[9] = tested on: MCF-7; conditions: literature value ref 41; read-out: cytotoxicity (IC50) MCF-7; cited from earlier work
[10] = n-octanol/water; ESI ref 13; cited from earlier work
[11] = Stability in solution (ESI-MS, NMR); conditions: 100% d6-DMSO, 1 mM, 72 h
Description: The stability of 11CA under pseudo-physiological conditions was assessed using ESI-MS and ^1H and ^31P NMR spectroscopy.
Stability studies were performed on 11CA over 72 h at 37 °C.
The stability of 11Cl was also monitored over
72 h via 1H and 31P NMR spectroscopy. The complex was fully dissolved in d6-DMSO,
diluted with D2O to reach 10% d6-DMSO in D2O (1 mM final concentration) and, finally,
the pD was adjusted to 7.2 ± 0.1 (neutral conditions). Furthermore, the stability of 11Cl
and 11BPh4 was also assessed in 100% d6-DMSO (1 mM final concentration) as a highly

[12] = 24 h exposure, read-out: IC50 (µM) (average ± standard deviation) 24 h MCF-7
[13] = 72 h exposure, read-out: IC50 (μM) (average ± standard deviation) 72 h MCF-7
[14] = 24 h exposure, read-out: IC50 (µM) (average ± standard deviation) 24 h MDA-MB-231
[15] = 72 h exposure, read-out: IC50 (μM) (average ± standard deviation) 72 h MDA-MB-231
[16] = 24 h exposure, read-out: IC50 (µM) (average ± standard deviation) 24 h L929
[17] = 72 h exposure, read-out: IC50 (μM) (average ± standard deviation) 72 h L929

| SMILES | Solubility (μM) [1] | Solubility (μg/mL) [1] | IC50 [2, 12] [µM] | IC50 [2, 13] [µM] | IC50 [3, 14] [µM] | IC50 [3, 15] [µM] | SI (selectivity index) ([4]; 24 h) | IC50 [4, 16] [µM] | SI (selectivity index) ([4]; 72 h) | IC50 [4, 17] [µM] | average apoptosis percentage, MDA-MB-231 cells [5] [%] | LogPow [6] | Conductivity (molar conductivity) [7] [S·cm2/mol] | IC50 [8] [µM] | IC50 [9] [µM] | LogPow [10] | stability in DMSO (NMR) [11] |
| --- | --- | --- | --- | --- | --- | --- | --- | --- | --- | --- | --- | --- | --- | --- | --- | --- | --- |
| Cc1cccc[c]1[Ru+]([Cl])([PH]12CN3CN(CN(C3)C1)C2)[PH](c1ccccc1)(c1ccccc1)c1ccccc1.F[P-](F)(F)(F)(F)F (centres unmarked) [Compound 10] | 547 ± 117 µM | 475 ± 102 µg/mL | 128 ± 30 | 3.1 ± 0.2 | 113 ± 14 | 2.8 ± 0.2 | 0.6 | 74 ± 5 | 10.5 | 31 ± 3 | 41 |  |  |  |  |  |  |
| Cc1cccc[c]1[Ru+]([Cl])([PH](c1ccccc1)(c1ccccc1)c1ccccc1)[PH](c1ccccc1)(c1ccccc1)c1ccccc1.[F][Sb-]([F])([F])([F])([F])[F] [Compound 11SbF6] | below LOD | below LOD | 11 ± 2 | 0.08 ± 0.01 | 21 ± 2 | 0.131 ± 0.009 | 0.4 | 7 ± 0.4 | 12.8 | 1.35 ± 0.09 | 95 | 2.01 ± 0.07 | 186 |  |  |  |  |
| N.N.[Cl][Pt][Cl] [cisplatin] |  |  |  |  |  |  |  |  |  |  |  |  |  | 38.7 ± 0.03 | 28 ± 6 |  |  |
| Cc1ccccc1.[Cl][Ru]([Cl])[PH]12CN3CN(CN(C3)C1)C2 [Compound 4] |  |  | 474 ± 19 | 68 ± 7 | 384 ± 16 | 83 ± 4 | 1.7 | 723 ± 29 | 1.0 | 79 ± 4 |  |  |  |  |  | −1.5 |  |
| Cc1cccc[c]1[Ru+]([Cl])([PH](c1ccccc1)(c1ccccc1)c1ccccc1)[PH](c1ccccc1)(c1ccccc1)c1ccccc1.c1ccc([B-](c2ccccc2)(c2ccccc2)c2ccccc2)cc1 [Compound 11BPh4] | below LOD | below LOD | 51 ± 5 | 0.52 ± 0.06 | 100 ± 8 | 1.7 ± 0.3 | 0.8 | 59 ± 5 | 3.5 | 3.9 ± 0.3 | 33 | > 3.5 | 71 |  |  |  | No changes were observed |
| Cc1cccc[c]1[Ru+]([Cl])([PH](c1ccccc1)(c1ccccc1)c1ccccc1)[PH](c1ccccc1)(c1ccccc1)c1ccccc1.F[P-](F)(F)(F)(F)F [Compound 11PF6] | 0.6 ± 0.2 µM | 0.6 ± 0.2 µg/mL | 3 ± 0.3 | 0.15 ± 0.01 | 5 ± 0.1 | 0.16 ± 0.01 | 2.5 | 10 ± 1 | 1.1 | 0.17 ± 0.01 |  | 1.91 ± 0.23 | 150 |  |  |  |  |
| Cc1ccc(C(C)C)cc1.[Cl][Ru]([Cl])[PH]12CN3CN(CN(C3)C1)C2 [Compound 5] |  |  | 526 ± 19 | 57 ± 5 | 497 ± 12 | 71 ± 4 | 1.2 | 612 ± 30 | 1.3 | 84 ± 4 |  |  |  |  |  | > −1.8 |  |
| Cc1cccc[c]1[Ru+]([Cl])([PH](c1ccccc1)(c1ccccc1)c1ccccc1)[PH](c1ccccc1)(c1ccccc1)c1ccccc1.O=[N+]([O-])[O-] [Compound 11NO3] | 268 ± 42 µM | 218 ± 34 µg/mL | 5.9 ± 0.5 | 0.078 ± 0.005 | 4.6 ± 0.3 | 0.109 ± 0.009 | 0.7 | 3.7 ± 0.4 | 11.1 | 1.04 ± 0.05 |  | 1.57 ± 0.29 | 141 |  |  |  |  |
| Cc1cccc[c]1[Ru+]([Cl])([PH](c1ccccc1)(c1ccccc1)c1ccccc1)[PH](c1ccccc1)(c1ccccc1)c1ccccc1.O=S(=O)([O-])C(F)(F)F [Compound 11OTf] | 1.1 ± 0.1 µM | 1.0 ± 0.1 µg/mL | 4 ± 1 | 0.6 ± 0.07 | 4 ± 2 | 1.4 ± 0.1 | 1.5 | 5.8 ± 0.7 | 1.8 | 1.8 ± 0.2 | 40 | 1.75 ± 0.18 | 173 |  |  |  |  |
